The target of one experiment is T1, AURKC (Aurora C) (Homo sapiens, UniProt Q9UQB9).
T1 sequence (Q9UQB9 1-309): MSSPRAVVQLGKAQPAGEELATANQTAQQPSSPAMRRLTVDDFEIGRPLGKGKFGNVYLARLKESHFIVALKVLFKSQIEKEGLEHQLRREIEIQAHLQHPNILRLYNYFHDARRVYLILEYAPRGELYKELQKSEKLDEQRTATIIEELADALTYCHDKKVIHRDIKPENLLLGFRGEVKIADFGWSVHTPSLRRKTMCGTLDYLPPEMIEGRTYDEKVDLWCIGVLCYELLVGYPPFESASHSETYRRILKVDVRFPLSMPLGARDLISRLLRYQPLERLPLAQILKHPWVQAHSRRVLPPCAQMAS
The experiment can be described thus: High-throughput kinase assay. As to conditions: read-out: Percent inhibition of kinase activity in vitro, AURKC (Aurora C); for inhibition at 0.1 µM: 100 nM; for inhibition at 0.5 µM: 500 nM. The experiment is classed as biochemical.

The target in another experiment is ERBB2 (HER2) (Homo sapiens, UniProt P04626). The experiment can be described thus: High-throughput kinase assay. Type of experiment: biochemical. Conditions: 500 nM; read-out: Percent inhibition of kinase activity in vitro, ERBB2 (HER2).
The next experiment concerns cell cycle. Put plainly: Cell cycle analysis (FACS, propidium iodide staining). The experiment is classed as cell-based. As to the method: Cell cycles were synchronized prior to treatment through overnight serum deprivation. After treatment, cells were fixed and permeabilized using BD Cytofix/Cytoperm reagent (BD Bioscience), washed with PBS, and treated with 100 μg/ml Bovine Pancreas RNase A (US Biological). Cells were then stained with 25 μg/ml propidium iodide (Sigma) for 15 minutes and then immediately analyzed by flow cytometry using BD FACScalibur. The data was analyzed using FCS Express software.
It was observed during Compound 1 treatment that the targeting effect against stem-like cells is visibly associated with morphological changes resembling cell polyploidization, the accumulation of multiple DNA copies in a cell. This biological phenomenon sometimes occur as part of cell differentiation and is often associated with disruption of normal cell cycle. The identification of Aurora kinases (described below) as targets of Compound 1 supports the possible impact on cell division. Therefore the effect of Compound 1 on cell cycle using FACS analysis to measure propidium iodide staining was investigated.

The next experiment concerns BT20 cells. The experiment can be described thus: Clonogenic assay. Conditions: BT20, 6 days of incubation. Type of experiment: cell-based. As to the method:
(§1) Cancer cell lines: MDA-MB-231, BT-20, Panc-1, OVCAR-3, 4T1 and RENCA were obtained from ATCC. Epithelial breast adenocarcinoma cell line PMC42-LA, were kindly provided by Dr. Ackland. Mia-Paca cells were kindly provided by Dr. George Zogopoulos. All cancer cell lines were cultured in RPMI1640× with 10% fetal bovine serum with 1% penicillin/streptomycin, and maintained at 37° C. in 5% atmosphere of CO2. In the case of growth factor stimulation, cells were serum starved for no longer than 12H, and then stimulated with 20 ng/ml EGF for 40 minutes.
(§2) Clonogenic assays were also performed using standard techniques as previously described. Briefly, cells were harvested from exponential-phase cultures, counted and plated at densities of 200 cells per well of a 12-well plate. Twenty-four hours after plating, the compounds were delivered once at the mentioned concentration. Negative control was carried out by treating the cells with DMSO. After 6 days of incubation in the presence of the compounds, the cells were stained with 0.5% crystal violet in absolute ethanol, and colonies were counted using the machine GelCount™ Tumor Colony Counter from Oxford Optronix Ltd. Each experiment was done in triplicates.

A further experiment concerns OVCAR-3 cells. The experiment can be described thus: Clonogenic assay. Conditions: OVCAR-3, 6 days of incubation. The experiment is classed as cell-based. As to the method: as §1, §2
A further experiment concerns Panc-1 cells. Put plainly: Clonogenic assay. Conditions: Panc-1, 6 days of incubation. Type of experiment: cell-based. How it is done: as §1, §2
In experiment [1] the test system is 4T1/M (triple-negative breast cancer). The experiment can be described thus: In vivo distant metastasis and primary tumor growth, orthotopic transplant. As to conditions: 4T1/M in Balb/c mice, PO. An excerpt: (§3) In vivo studies were approved by McGill Animal Care Committee. Cells growing in exponential phase of growth (1×10^6 cells/mouse) were transplanted into the mammary fat pad of female SCID (MDA231/M) or Balb/c (4T1) mice. Mia-PaCa cells and RENCA cells were implanted subcutaneously in SCID or Balb/c mice respectively. When primary tumors became palpable mice were randomized and blindly assigned treatment groups. Treatment was given PO for 4 cycles (3 times a week: day 1, day 3, day 5) (n=8-10 mice per condition). Control mice received the vehicle alone (1% DMSO in physiologic solution). […] Tumor size was measured using a caliper. At the study termination (60-90 days) primary tumors were excised and weighted. The lungs were fixed in 10% Bouin's fixative and lung surface metastases were counted using a stereomicroscope.

In experiment [2] the test system is MDA-231/M (human triple-negative breast cancer). The experiment is described as above. As to conditions: MDA-231/M in SCID mice, PO.
Source text: as §3

Experiment [3] relates to Mia-PaCa (human pancreatic carcinoma). The experiment can be described thus: In vivo primary tumor growth, subcutaneous implant. More on the design: species or system SCID mice.
Source text: as §3

Experiment [4] relates to RENCA (renal adenocarcinoma). The experiment can be described thus: In vivo primary tumor growth, subcutaneous implant. Also on record: species or system Balb/c mice.
Source text: as §3

In experiment [5] the test system is breast cancer metastasis to the lung. Put plainly: In vivo invasive breast cancer models, metastasis to the lung. Conditions: 30 mg/kg and below given bi-weekly for 3 weeks.
Source text: These kinases are directly involved in pathways controlling cell differentiation programs, metastasis signaling, as well as EMT and CSC programming and their overexpression was reported to predict decreased metastasis-free survival.
as §3, with “Treatment was given PO for 4 cycles (3 times a week: day 1, day 3, day 5) (n=8-10 mice per condition).” left out

The values that follow come from US10711002B2, “Purine compounds and method for the treatment of cancer” (THE ROYAL INSTITUTION FOR THE ADVANCEMENT OF …, priority 2016, dated 2020).

Sequence of ERBB2 (HER2) (P04626 23-1255): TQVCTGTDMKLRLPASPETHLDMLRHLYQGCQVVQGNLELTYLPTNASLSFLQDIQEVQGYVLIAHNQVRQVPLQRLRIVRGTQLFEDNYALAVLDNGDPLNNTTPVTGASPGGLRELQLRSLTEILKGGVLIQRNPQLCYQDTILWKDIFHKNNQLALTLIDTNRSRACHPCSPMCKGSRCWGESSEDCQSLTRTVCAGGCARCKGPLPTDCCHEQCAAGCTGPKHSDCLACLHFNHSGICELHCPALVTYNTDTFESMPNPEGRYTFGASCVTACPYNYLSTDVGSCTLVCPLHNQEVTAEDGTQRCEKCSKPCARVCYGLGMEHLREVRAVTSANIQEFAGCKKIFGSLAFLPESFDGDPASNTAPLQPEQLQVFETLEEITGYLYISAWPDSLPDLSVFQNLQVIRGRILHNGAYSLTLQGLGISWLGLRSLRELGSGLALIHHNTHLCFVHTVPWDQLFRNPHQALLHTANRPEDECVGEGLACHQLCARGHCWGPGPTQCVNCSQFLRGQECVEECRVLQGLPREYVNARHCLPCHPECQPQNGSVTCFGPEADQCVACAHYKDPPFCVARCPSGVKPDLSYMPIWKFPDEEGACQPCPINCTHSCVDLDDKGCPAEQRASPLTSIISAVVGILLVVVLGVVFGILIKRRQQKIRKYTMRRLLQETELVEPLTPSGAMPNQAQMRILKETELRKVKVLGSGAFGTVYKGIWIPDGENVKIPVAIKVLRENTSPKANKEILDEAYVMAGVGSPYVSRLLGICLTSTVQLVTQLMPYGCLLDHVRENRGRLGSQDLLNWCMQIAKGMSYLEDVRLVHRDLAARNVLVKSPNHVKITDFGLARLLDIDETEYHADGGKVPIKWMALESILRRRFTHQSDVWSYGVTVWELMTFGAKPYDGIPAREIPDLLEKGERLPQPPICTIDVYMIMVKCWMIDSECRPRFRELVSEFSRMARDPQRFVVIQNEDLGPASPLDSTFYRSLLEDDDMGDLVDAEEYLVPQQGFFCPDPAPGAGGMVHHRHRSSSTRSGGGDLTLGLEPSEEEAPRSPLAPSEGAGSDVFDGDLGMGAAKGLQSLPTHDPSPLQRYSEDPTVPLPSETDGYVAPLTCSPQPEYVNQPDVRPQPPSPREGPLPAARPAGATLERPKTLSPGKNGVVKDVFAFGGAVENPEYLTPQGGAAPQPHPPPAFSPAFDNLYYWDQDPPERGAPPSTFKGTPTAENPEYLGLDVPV

Consider `O=c1c2ccccc2[se]n1-c1nc(NC2CCCCC2)c2nc[nH]c2n1` [Compound 1], for which, on AURKC (Aurora C), the inhibition – broadly, how much of the control response was suppressed – at 0.1 µM amounted to 2% and the inhibition at 0.5 µM came to 10%. In addition, the inhibition at 0.5 µM at ERBB2 (HER2) was 0%. The “accumulation of polyploidic cells” value in the experiment with cell cycle is “induces a dose-dependent accumulation of polyploidic cells”.

For the compound `O=c1c2ccccc2[se]n1-c1nc(NC2CC[Se]C2)c2nc[nH]c2n1` (stereo not drawn) [Compound 2], on AURKC (Aurora C), the inhibition at 0.1 µM is 0% and the inhibition at 0.5 µM worked out at 11%. Also, the inhibition at 0.5 µM at ERBB2 (HER2) was found to be 0%.

`C[C@@H]1C(Nc2nc(-n3[se]c4ccccc4c3=O)nc3[nH]cnc23)C[C@H]2C[C@@H]1C2(C)C` (stereo partly drawn) [Compound 3]: at AURKC (Aurora C), the inhibition at 0.1 µM was determined as 0%. In addition, the inhibition at 0.5 µM was found to be 7% on AURKC (Aurora C) and 2% at ERBB2 (HER2).

Turning to `O=c1c2ccccc2[se]n1-c1nc(N[C@H]2CC[Se]C2)c2nc[nH]c2n1` [Compound 4], the inhibition at 0.1 µM at AURKC (Aurora C) was 0%. The colony forming ability result with BT20 cells, in the experiment on OVCAR-3 cells and in the experiment on Panc-1 cells was “Significant reduction” in each case. Besides, the “Primary tumor weight” value worked out at 0.5 ± 0.10 g in experiment [1] (at study termination); 0.2 ± 0.08 g in experiment [2] (at study termination); 0.6 ± 0.14 g in [3] (Mia-PaCa subcutaneous in SCID mice, PO, at study termination). Moreover, the “Inhibition of distant metastasis (% control)” value in [1] (lung surface metastases) was 75-82%; in experiment [2] (lung surface metastases), 45-61%. For the same compound, in [3] (mouse, in vivo), the “pancreatic cancer cell (Mia-PaCa) growth in vivo” value is on record as “able to inhibit”. For the same compound, the “Primary tumor weight (% inhibition vs. control)” value in experiment [4] (RENCA subcutaneous in Balb/c mice, PO) was “(34-55%)”. Besides, in [4] (mouse, in vivo), the “renal adenocarcinoma cell (RENCA) growth in vivo” value is given as “able to inhibit”. In addition, in experiment [5], the “inhibition of breast cancer metastasis to the lung” value was “more than 50%”.

For the compound `O=C1c2ccccc2CN1c1nc(NC2CCCCC2)c2nc[nH]c2n1` [SLLN-6C, reference compound], the inhibition at 0.1 µM on AURKC (Aurora C) turned out to be 0%.
